Experimental data published in US10287581B2, “Cell penetrating peptides for intracellular delivery of molecules” (AADIGEN, LLC, priority 2011, dated 2019).

Experiments:
cyclin B1 = assay: Cyclin B1 silencing at protein (Western blotting) and mRNA (Quantigen) level; type: cell-based, Human; conditions: 200 nM siRNA complexed with VEPEP-6 at a 1/20 ratio
Method: FIGS. 6A-6C: VEPEP-6 dose response of Cyclin B1 silencing at the protein and mRNA levels on Hela (6A) and HS68 (6B) cells. Stock solution of VEPEP-6/siRNA ([…]) particles were prepared at a molar ratio of 1/20 (siRNA/VEPEP-6), and lower concentrations (from 200 nM to 0.125 nM) were obtained by serial dilution of the stock solution in PBS. HeLa (Panel A) and HS-68 (Panel B) cells (60% confluency) were overlaid with preformed complexes for 30 min, then fresh DMEM supplemented with 10% FCS was added directly to the cells, which were then returned to the incubator for 24 hrs. Cyclin B1 protein levels were determined by Western Blotting using Cdk2 as a control for quantification (white bars). Cyclin B1 mRNA levels were measured 12 hrs after transfection using Quantigen technology (black bars). Mismatched Cyc-B3 siRNA associated with VEPEP-6 (200 nM) and empty VEPEP-6 particles (20 μM) were used as a control. 6C: Dose-response of G2-arrest associated with Cyclin B1 silencing. HeLa (black bars) and HS68 (white bars) cells were treated with increasing concentrations of VEPEP-6/siRNA-Cyc-B1 from 0.25 nM to 20 nM. The cell cycle status was evaluated by FACS analysis. […]
Cyclin B1 mRNA and protein levels were determined 12 and 24 hrs following transduction, using Quantigen (Panomics Inc.) and Western blotting, respectively. […]

PC3 xenografted tumors = assay: Tumour growth in PC3-xenografted mice, cyclin B1 siRNA; type: in vivo
Method: FIGS. 11A-11D: NANOPEP-6 Cyclin B1 siRNA delivery upon topical and systemic injection. Athymic female nude mice were subcutaneously inoculated into the flank with 1×10^6 PC3 (11A and 11B) or HT29 (11C and 11D). Two to three weeks after tumour implant, when tumour size reached about 100 mm^3, animals were treated by intratumoral (11A and 11C) injections, every 3 days, with a solution either saline buffer solution (closed triangle), free Cyc-B1 siRNA (open triangle), control siRNA Cyc-B3 (closed box) or Cyc-B1 siRNA at 5 μg (open circle) and 10 μg (closed circle) complexed with NANOPEP-6 at a 1/20 molar ratio. […] Tumour diameter was measured in two directions at regular intervals using a digital calliper and tumour volume was calculated as length×width×height×0.52. […]
Tumour diameter was measured in two directions at regular intervals using a digital calliper and tumour volume was calculated as length×width×height×0.52. […] The statistical significance of the results was calculated by Student's t test and p<0.05 considered to be statistically significant. […]
The potential of NANOPEP-6 (VEPEP6/VEPEP6) to deliver cyclin B1 siRNA in vivo was first evaluated on human prostate carcinoma cell PC3-xenografted mice (FIG. 11A). The effect of local intratumoral administration of NANOPEP-6/siRNA particles (molar ratio 20/1) on the growth of established subcutaneous tumours was evaluated. […]

| Substance | effect on cyclin B1 levels and cell cycle progression (cyclin B1) | inhibition of tumour growth (PC3 xenografted tumors; complexed with NANOPEP-6, 0.5 mg/kg) | effect on tumour growth (PC3 xenografted tumors; controls: naked siRNA 100 (intratumoral or intravenous), carrier alone) |
| --- | --- | --- | --- |
| Cyc-B3: cyclin B1 siRNA harbouring two mismatches, control, SEQ ID No: 19/20 (chain 1 GGUGAAGAUCAGCAUGGCATT; chain 2 UGCCAUGUCGAUCUUCACCTT; chemistry not given here) | no effect | unable to inhibit tumour growth |  |
| naked siRNA: Cyc-B1 siRNA without carrier, SEQ ID No: 17/18 (chain 1 GGCGAAGAUCAACAUGGCATT; chain 2 UGCCAUGUUGAUCUUCGCCTT; chemistry not given here) |  |  | no significant effect |
